Source: patent US20220348572A1, “BRIDGED HETEROCYCLYL-SUBSTITUTED PYRIMIDINE COMPOUND, PREPARATION METHOD THEREFOR, AND PHARMACEUTICAL USE THEREOF” (The National Institutes of Pharmaceutical R&D Co., Ltd., priority 2019, published 2022)

Target: T1, JAK1 kinase (Homo sapiens, UniProt P23458)
T1 construct: purchased Invitrogen PV4744
Test: In vitro inhibitory activity on JAK1 kinase (ADP-Glo Kinase Assay)
Type: biochemical
Settings: JAK1 kinase 4 nM, 1 mM ATP
Experimental: Test Example 1: Determination of In Vitro Inhibitory Activity of the Compounds of the Present Invention on JAK1 Kinase Experimental materials: JAK1 kinase (Invitrogen, PV4744), ATP (Promega, V915B), ADP-Glo Kinase Assay (Promega, V9101), IRS1 (Signalchem, 140-58-1000). Sample preparation: The compounds of the present invention and the control product were dissolved in DMSO solvent respectively to formulate into 10 mM initial liquid. The maximum concentration of the compound was 10 μM, 3-fold dilution, 10 concentration gradients, and duplicate wells for each concentration gradient. Experimental processs: 0.1 μL of the compound to be tested was transferred into a 384 reaction plate (PE, 6007290) via Echo and centrifuged at 1000 rpm/min for 1 min. 5 μL JAK1 kinase (final concentration of 4 nM) was transferred into the 384 reaction plate, which was then centrifuged at 1000 rpm/min for 1 min, and incubated at 25° C. for 15 min. 5 μL substrate mixture (1 mM ATP, IRS1 0.05 mg/ml, kinase buffer solution) was transferred into the 384 reaction plate, which was then centrifuged at 1000 rpm/min for 1 min, and incubated at 25° C. for 60 min. 10 μL ADP-Glo was transferred into the 384 reaction plate, which was then centrifuged at 1000 rpm/min for 1 min, and incubated at 25° C. for 40 min. 20 μL test solution was transferred into the 384 reaction plate, which was then centrifuged at 1000 rpm/min for 1 min and incubated at 25° C. for 40 min. RLU (Relative luminescence unit) signal was read by using an Envision multifunctional plate reader. The signal intensity was used to characterize the degree of the kinase activity. […] IC50 value of 0-100 nM is shown as A, IC50 value of 100-300 nM is shown as B, IC50 value of 300-1000 nM is shown as C, and IC50 value which is greater than 1000 nM is shown as D. NT means not tested.

T1 sequence (P23458 866-1154 limits assumed): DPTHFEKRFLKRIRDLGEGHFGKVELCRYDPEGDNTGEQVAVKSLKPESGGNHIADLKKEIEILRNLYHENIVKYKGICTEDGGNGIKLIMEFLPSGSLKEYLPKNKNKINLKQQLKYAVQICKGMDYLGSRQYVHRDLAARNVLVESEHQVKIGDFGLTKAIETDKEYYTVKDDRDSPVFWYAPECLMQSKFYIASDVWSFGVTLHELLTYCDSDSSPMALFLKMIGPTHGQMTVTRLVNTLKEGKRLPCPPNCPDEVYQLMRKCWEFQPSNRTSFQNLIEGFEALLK

IC50 | SMILES
> 1000 nM | Cn1cc(Nc2nccc(C3=CC4CCC(C3)N4C(=O)N3CCC(C(F)(F)F)C3)n2)cn1 (stereo not shown) [Compound 9, (3-(2-((1-methyl-1H-pyrazol-4-yl)amino)pyrimidin-4-yl)-8-azabicyclo[3.2.1]oct-2-en-8-yl)(3-(trifluoromethyl)pyrrolidin-1-yl)methanone]
< 100 nM | Cc1cnc(Nc2cnn(CC(C)(C)O)c2)nc1C1=C[C@H]2CC[C@@H](C1)N2C(=O)NCC(F)(F)F [Compound 29-b, (1R,5S)-3-(2-((1-(2-Hydroxy-2-methylpropyl)-1H-pyrazol-4-yl)amino)-5-methylpyrimidin-4-yl)-N-(2,2,2-trifluoroethyl)-8-azabicyclo[3.2.1]oct-2-ene-8-carboxamide]
100 to 300 nM | Cn1cc(Nc2nccc(C3=CC4CCC(C3)N4C(=O)NCCOC(F)(F)F)n2)cn1 (stereo not shown) [Compound 58, 3-(2-((1-methyl-1H-pyrazol-4-yl)amino)pyrimidin-4-yl)-N-(2-(trifluoromethoxy)ethyl)-8-azabicyclo[3.2.1]oct-2-ene-8-carboxamide]
100 to 300 nM | Cn1cc(Nc2nccc(C3=CC4CCC(C3)N4C(=O)C3CCOC3)n2)cn1 (stereo not shown) [Compound 76, (3-(2-((1-methyl-1H-pyrazol-4-yl)amino)pyrimidin-4-yl)-8-azabicyclo[3.2.1]oct-2-en-8-yl)(tetrahydrofuran-3-yl)methanone]
> 1000 nM | Cn1cc(Nc2nccc(C3=CC4CCC(C3)N4S(=O)(=O)CCC(F)(F)F)n2)cn1 (stereo not shown) [Compound 6, N-(1-methyl-1H-pyrazol-4-yl)-4-(8-((3,3,3-trifluoropropyl)sulfonyl)-8-azabicyclo[3.2.1]oct-2-en-3-yl)pyrimidin-2-amine]
< 100 nM | Cn1cc(Nc2ncc(Cl)c(C3=CC4CCC(C3)N4C(=O)[C@@H]3CC3(F)F)n2)cn1 (stereo partly drawn) [Compound 23, (3-(5-chloro-2-((1-methyl-1H-pyrazol-4-yl)amino)pyrimidin-4-yl)-8-azabicyclo[3.2.1]oct-2-en-8-yl)((S)-2,2-difluorocyclopropyl)methanone]
< 100 nM | Cn1cc(Nc2ncc(Cl)c(C3=C[C@H]4CC[C@@H](C3)N4C(=O)[C@@H]3CC3(F)F)n2)cn1 [Compound 23-b, ((1R,5S)-3-(5-chloro-2-((1-methyl-1H-pyrazol-4-yl)amino)pyrimidin-4-yl)-8-azabicyclo[3.2.1]oct-2-en-8-yl)((S)-2,2-difluorocyclopropyl)methanone]
< 100 nM | Cc1cnc(Nc2cnn(CCO)c2)nc1C1=CC2CCC(C1)N2C(=O)NCC(F)(F)F (stereo not shown) [Compound 28, 3-(2-((1-(2-hydroxyethyl)-1H-pyrazol-4-yl)amino)-5-methylpyrimidin-4-yl)-N-(2,2,2-trifluoroethyl)-8-azabicyclo[3.2.1]oct-2-ene-8-carboxamide]
300 to 1000 nM | Cc1cnc(Nc2cnn(C)c2C)nc1C1=CC2CCC(C1)N2C(=O)NCC(F)(F)F (stereo not shown) [Compound 27, 3-(2-((1,5-dimethyl-1H-pyrazol-4-yl)amino)-5-methylpyrimidin-4-yl)-N-(2,2,2-trifluoroethyl)-8-azabicyclo[3.2.1]oct-2-ene-8-carboxamide]
< 100 nM | Cc1cnc(Nc2cnn(C3CC3)c2)nc1C1=CC2CCC(C1)N2C(=O)NCC(F)(F)F (stereo not shown) [Compound 31, 3-(2-((1-Cyclopropyl-1H-pyrazol-4-yl)amino)-5-methylpyrimidin-4-yl)-N-(2,2,2-trifluoroethyl)-8-azabicyclo[3.2.1]oct-2-ene-8-carboxamide]
300 to 1000 nM | Cn1cc(Nc2nccc(C3=CC4CCC(C3)N4C(=O)N3CCC(F)(F)C3)n2)cn1 (stereo not shown) [Compound 8, (3,3-difluoropyrrolidin-1-yl)(3-(2-((1-methyl-1H-pyrazol-4-yl)amino)pyrimidin-4-yl)-8-azabicyclo[3.2.1]oct-2-en-8-yl)methanone]
100 to 300 nM | Cn1cc(Nc2nccc(C3=CC4CCC(C3)N4C(=O)[C@@H]3C[C@H]3C#N)n2)cn1 (stereo partly drawn) [Compound 47, (1R,2R)-2-(3-(2-((1-methyl-1H-pyrazol-4-yl)amino)pyrimidin-4-yl)-8-azabicyclo[3.2.1]oct-2-ene-8-formyl)cyclopropane-1-carbonitrile]
300 to 1000 nM | Cn1cc(Nc2nccc(C3=CC4CCC(C3)N4C(=O)COCC(F)(F)F)n2)cn1 (stereo not shown) [Compound 69, 1-(3-(2-((1-methyl-1H-pyrazol-4-yl)amino)pyrimidin-4-yl)-8-azabicyclo[3.2.1]oct-2-en-8-yl)-2-(2,2,2-trifluoroethoxy)-1-one]
> 1000 nM | Cn1cc(Nc2nccc(C3=CC4CCC(C3)N4C(=O)C3CCOCC3)n2)cn1 (stereo not shown) [Compound 78]
< 100 nM | Cn1cc(Nc2nccc(C3=CC4CCC(C3)N4C(=O)NC3(C(F)(F)F)CC3)n2)cn1 (stereo not shown) [Compound 33, 3-(2-((1-methyl-1H-pyrazol-4-yl)amino)pyrimidin-4-yl)-N-(1-(trifluoromethyl)cyclopropyl)-8-azabicyclo[3.2.1]oct-2-ene-8-carboxamide]
> 1000 nM | Cn1cc(Nc2nccc(C3=CC4CCC(C3)N4C(=O)C3CC3(C)C)n2)cn1 (stereo not shown) [Compound 60, (2,2-Dimethylcyclopropyl)(3-(2-((1-methyl-1H-pyrazol-4-yl)amino)pyrimidin-4-yl)-8-azabicyclo[3.2.1]oct-2-en-8-yl)methanone]
300 to 1000 nM | Cn1cc(Nc2nccc(C3=CC4CCC(C3)N4C(=O)C(C)(C)C(F)(F)F)n2)cn1 (stereo not shown) [Compound 68, 3,3,3-trifluoro-2,2-dimethyl-1-(3-(2-((1-methyl-1H-pyrazol-4-yl)amino)pyrimidin-4-yl)-8-azabicyclo[3.2.1]oct-2-en-8-yl)acetone]
< 100 nM | Cn1cc(Nc2nccc(C3=CC4CCC(C3)N4C(=O)CC3CC(F)(F)C3)n2)cn1 (stereo not shown) [Compound 79, 2-(3,3-difluorocyclobutyl)-1-(3-(2-((1-methyl-1H-pyrazol-4-yl)amino)pyrimidin-4-yl)-8-azabicyclo[3.2.1]oct-2-en-8-yl)-1-acetone]
300 to 1000 nM | C[C@@H](NC(=O)N1C2C=C(c3ccnc(Nc4cnn(C)c4)n3)CC1CC2)C(F)(F)F (stereo partly drawn) [Compound 56, 3-(2-((1-Methyl-1H-pyrazol-4-yl)amino)pyrimidin-4-yl)-N-((R)-1,1,1-trifluoropropane-2-yl)-8-azabicyclo[3.2.1]oct-2-ene-8-carboxamide]
> 1000 nM | Cn1cc(Nc2nccc(C3=CC4CCC(C3)N4C(=O)C34CC(C3)C4)n2)cn1 (stereo not shown) [Compound 72, bicyclo[1.1.1]pentan-1-yl(3-(2-((1-methyl-1H-pyrazol-4-yl)amino)pyrimidin-4-yl)-8-azabicyclo[3.2.1]oct-2-en-8-yl)methanone]
> 1000 nM | Cn1cc(Nc2nccc(C3=CC4CCC(C3)N4C(=O)c3cc(C#N)cs3)n2)cn1 (stereo not shown) [Compound 18, 5-(3-(2-((1-methyl-1H-pyrazol-4-yl)amino)pyrimidin-4-yl)-8-azabicyclo[3.2.1]oct-2-ene-8-formyl)thiophene-3-carbonitrile]
100 to 300 nM | Cn1cc(Nc2nccc(C3=CC4CCC(C3)N4C(=O)C(F)(F)C3CC3)n2)cn1 (stereo not shown) [Compound 75, 2-cyclopropyl-2,2-difluoro-1-(3-(2-((1-methyl-1H-pyrazol-4-yl)amino)pyrimidin-4-yl)-8-azabicyclo[3.2.1]oct-2-en-8-yl)ethan-1-one]
< 100 nM | Cn1cc(Nc2ncc(F)c(C3=CC4CCC(C3)N4C(=O)[C@@H]3CC3(F)F)n2)cn1 (stereo partly drawn) [Compound 21, ((S)-2,2-difluorocyclopropyl)(3-(5-fluoro-2-((1-methyl-1H-pyrazol-4-yl)amino)pyrimidin-4-yl)-8-azabicyclo[3.2.1]oct-2-en-8-yl)methanone]
> 1000 nM | C#CCC(=O)N1C2C=C(c3ccnc(Nc4cnn(C)c4)n3)CC1CC2 (stereo not shown) [Compound 53, 1-(3-(2-((1-methyl-1H-pyrazol-4-yl)amino)pyrimidin-4-yl)-8-azabicyclo[3.2.1]oct-2-en-8-yl)but-3-yn-1-one]
> 1000 nM | Cn1cc(Nc2nccc(C3=CC4CCC(C3)N4C(=O)N3CC[C@@H](C#N)C3)n2)cn1 (stereo partly drawn) [Compound 7, (R)-1-(3-(2-((1-methyl-1H-pyrazol-4-yl)amino)pyrimidin-4-yl)-8-azabicyclo[3.2.1]oct-2-ene-8-carbonyl)pyrrolidine-3-nitrile]
100 to 300 nM | Cn1cc(Nc2nccc(C3=CC4CCC(C3)N4C(=O)CC#N)n2)cn1 (stereo not shown) [Compound 61, 3-(3-(2-((1-methyl-1H-pyrazol-4-yl)amino)pyrimidin-4-yl)-8-azabicyclo[3.2.1]oct-2-en-8-yl)-3-oxopropionitrile]
> 1000 nM | Cn1cc(Nc2ncc(S(C)(=O)=O)c(C3=CC4CCC(C3)N4C(=O)NCC(F)(F)F)n2)cn1 (stereo not shown) [Compound 34, 3-(2-((1-methyl-1H-pyrazol-4-yl)amino)-5-(methylsulfonyl)pyrimidin-4-yl)-N-(2,2,2-trifluoroethyl)-8-azabicyclo[3.2.1]oct-2-ene-8-carboxamide]
100 to 300 nM | CC(C)n1cc(Nc2nccc(C3=CC4CCC(C3)N4C(=O)[C@@H]3CC3(F)F)n2)cn1 (stereo partly drawn) [Compound 46, ((S)-2,2-Difluorocyclopropyl)(3-(2-((1-isopropyl-1H-pyrazol-4-yl)amino)pyrimidin-4-yl)-8-azabicyclo[3.2.1]oct-2-en-8-yl)methanone]
